Molecules are shown by their SMILES.

For test [1], the system named is subjects with dementia. The experiment in a line: Trial in subjects with dementia (CDR 1-2, MMSE 14-24), Aptus positive and negative. The format is in vivo, human. From the text: In a trial, the relationship between Clinical Dementia Rating Scale (CDR) and Mini Mental State Exam (MMSE) scores with measures of obesity, including Body Mass Index (BMI), Waist Circumference (WC), and waist-to-hip ratio (W/H) was explored with administration of 17α-ethynylandrost-5-ene-3β,7β,17β-triol. The trial sought to explore the anti-inflammatory and insulin sensitizing activity of 17α-ethynylandrost-5-ene-3β,7β,17β-triol in subjects with dementia, using inclusion criteria of the CDR levels 1-2 and the MMSE scores of 14-24 for inclusion criteria.
In this trial, the correlation between CDR (1-2) and MMSE (14-24) scores and the presence or absence of amyloid by the Aptus test, and also the presence of absence of metabolic inflammation using markers of obesity and metabolic inflammation was explored.
With Aptus data available for 96 subjects that met the criteria for CDR and MMSE, only 35 subjects (36%) met the Aptus criteria. When measures of obesity were examined, BMI was available for 149 subjects. Due to the age-related decrease in muscle mass, only 60 (40%) of the subjects met the CDC criteria (male BMI >40, Female BMI >35) for obesity. These restrictions would severely limit enrollment. […]

Test [2] relates to patients with degenerative dementia. The test is described as follows: Exit interviews with patients who completed NE3107-TRP-001. It is filed as in vivo, human. How it is done:
The exit interviews were conducted in the US with 11 adult patients/study partners who completed the Phase 2 trial of NE3107. Participants (patients and study partners) completed one 60-minute semi-structured interview via remote videoconference to facilitate face-to-face communication.
Each interview was divided into four parts: 1) elicitation of experience with degenerative dementia, 2) changes due to treatment with NE3107 and meaningfulness of those changes, 3) experience with NE3107 during the trial, and, if applicable, 4) study partner perceptions of the patient's changes during the trial and their trial experience.
Interviews took place via videoconference with a trained and experienced interviewers using a semi-structured interview guide. Participants were required to confirm that they signed the ICF for the exit interview, and provide permission to record the interview. The interviews lasted approximately 60 minutes. Open-ended questions were used to characterize the participant's experience with degenerative dementia. Three overarching topics were covered: 1) degenerative dementia signs and symptoms prior to the trial, 2) changes experienced during the trial, and 3) experience with the trial medication (NE3107). Interviewers noted spontaneously reported changes experienced during the trial and followed up with probes (as needed) to elicit the full range of changes experienced.
If both the patient and study partner participated, the patient was interviewed first with the study partner present. Following the patient interview, the study partner was interviewed without the patient present. Interviewers were instructed to direct the questions towards the patient and to remind the study partner that they would have an opportunity to add information or different perspectives at the end.
The coding and analysis of the interview transcripts followed principles in line with qualitative thematic (content) analysis (Braun et al. 2019), with additional features drawn from grounded theory (Bryant and Charmaz 2007; Strauss and Corbin 1998). This approach conforms to best practices in the field (Patrick et al. 2011). A saturation table was developed during the coding process and updated after each interview to ensure that the interviews provided sufficient quality and quantity of data to support the study goals. The focus of saturation was changes due to treatment.
During the interviews, patients were asked open-ended questions about any changes they experienced as a result of being treated with NE3107. Patients reported 14 unique change-related concepts related that were categorized as follows: cognitive (2 concepts), psychological (4 concepts), behavioral (2 concepts), physical (5 concepts), and no change (1 concept) (Table 3).

For the molecule `C#C[C@]1(O)CC[C@H]2[C@@H]3[C@@H](O)C=C4C[C@@H](O)CC[C@]4(C)[C@H]3CC[C@@]21C` [17α-ethynylandrost-5-ene-3β,7β,17β-triol, 17-ethynyl-10R, 13S-dimethyl 2,3,4,7, 8R, 9S, 10, 11, 12, 13, 14S, 15, 16, 17-hexadecahydro-1H-cyclopenta[a]phenanthrene-3R, 7R, 17S-triol], the cognition entry in test [1] is given as “improvements in cognition independent of amyloid beta positivity”. Moreover, in test [2] (SD=1.86, range 1-7), the “average number of positive changes per patient who improved” value worked out at 4.7. For the same molecule, the “Change due to treatment reported by patients: No Change” value in test [2] (exit interviews, N = 11) is listed as 2 n; in test [2] (exit interviews, N = 11, listed as NE3107), “two”. Besides, the “patients who experienced no change” value in test [2] (exit interviews, N = 11, figure in brackets after the count) came out at 15.4. The “Cognitive Change from Interview (Memory or Clarity)” value is on record as “Improvement” in test [2] (subject N-02-22); “Improvement” in test [2] (subject N-03-22); “Improvement” in test [2] (subject N-07-22); “No Change” in test [2] (subject N-10-22); “No Change” in test [2] (subject N-14-22); “Improvement” in test [2] (subject N-16-22). Moreover, the “Cognitive Change from Interview (Memory or Clarity)” value in test [2] (subject N-17-22), in test [2] (subject N-18-22), in test [2] (subject N-20-22), in test [2] (subject N-22-22) and in test [2] (subject N-23-22) was “Improvement” in each case.

The record behind these values is US20250186458A1, “METHODS FOR THE TREATMENT OF MILD COGNITIVE IMPAIRMENT” (BIOVIE INC., priority 2022, published 2025).
